Legend:
[1] = molecular target: Macrophage metalloelastase (Homo sapiens, UniProt P39900, V97L); assay: (§1) Inhibition of human recombinant MMP-12 (17 to 470 residues) Val97Leu mutant expressed in NS0 cells using (7-methoxycoumarin-4-y1)-acetyl-Pro-Leu-Gly-Leu-[3-(2,4-dinitropheny1)-L-2,3-diaminopropionyl]-Ala-Arg-NH2 as substrate preincubated with enzyme for 30 mins followed by substrate addition and measured after 10 mins by fluorescence based analysis; assay type: cell-based
[2] = molecular target: 72 kDa type IV collagenase (Homo sapiens, UniProt P08253); assay: as §1, with “MMP-2 (34” for “MMP-12 (17”, “660” for “470”, “residues)” for “residues) Val97Leu mutant”, “CHO” for “NS0”; assay type: cell-based
[3] = molecular target: Matrix metalloproteinase-9 (Homo sapiens, UniProt P14780, Q279R); assay: as §1, with “MMP-9 (20” for “MMP-12 (17”, “707” for “470”, “Gln279Arg” for “Val97Leu”, “CHO” for “NS0”; assay type: cell-based
[4] = molecular target: Collagenase 3 (Homo sapiens, UniProt P45452); assay: as §1, with “MMP-13 (20” for “MMP-12 (17”, “471” for “470”, “residues)” for “residues) Val97Leu mutant”
[5] = molecular target: Neutrophil collagenase (Homo sapiens, UniProt P22894); assay: as §1, with “MMP-8 (21” for “MMP-12 (17”, “467” for “470”, “residues)” for “residues) Val97Leu mutant”; assay type: cell-based
Sequence of Neutrophil collagenase (P22894 whole entry): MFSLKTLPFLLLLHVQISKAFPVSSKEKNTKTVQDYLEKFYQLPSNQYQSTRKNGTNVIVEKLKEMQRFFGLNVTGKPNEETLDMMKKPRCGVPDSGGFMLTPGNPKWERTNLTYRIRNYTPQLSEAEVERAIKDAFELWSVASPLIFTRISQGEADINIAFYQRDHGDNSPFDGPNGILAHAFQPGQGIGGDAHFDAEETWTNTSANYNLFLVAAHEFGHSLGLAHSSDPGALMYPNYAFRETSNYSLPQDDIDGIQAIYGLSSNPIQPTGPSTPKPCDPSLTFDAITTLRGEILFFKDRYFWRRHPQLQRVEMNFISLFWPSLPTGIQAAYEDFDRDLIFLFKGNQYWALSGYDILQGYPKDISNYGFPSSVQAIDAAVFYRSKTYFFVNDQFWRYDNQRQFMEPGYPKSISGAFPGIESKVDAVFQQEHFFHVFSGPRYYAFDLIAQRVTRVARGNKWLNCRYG

Sequence of Macrophage metalloelastase (P39900 whole entry V97L, the tested form may be a part): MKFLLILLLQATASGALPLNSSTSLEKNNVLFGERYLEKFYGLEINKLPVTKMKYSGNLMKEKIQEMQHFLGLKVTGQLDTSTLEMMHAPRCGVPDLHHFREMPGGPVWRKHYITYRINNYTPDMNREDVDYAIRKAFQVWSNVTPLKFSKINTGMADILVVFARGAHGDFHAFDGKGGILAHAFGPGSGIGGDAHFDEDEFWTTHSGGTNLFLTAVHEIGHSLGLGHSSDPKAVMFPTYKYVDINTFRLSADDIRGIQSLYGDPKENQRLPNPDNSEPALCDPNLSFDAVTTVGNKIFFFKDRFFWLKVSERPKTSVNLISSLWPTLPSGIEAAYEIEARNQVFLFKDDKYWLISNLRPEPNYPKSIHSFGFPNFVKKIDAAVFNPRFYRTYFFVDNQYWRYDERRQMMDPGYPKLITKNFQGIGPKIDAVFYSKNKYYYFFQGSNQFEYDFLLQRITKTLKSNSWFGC
Sequence of Matrix metalloproteinase-9 (P14780 107-707 Q279R limits assumed): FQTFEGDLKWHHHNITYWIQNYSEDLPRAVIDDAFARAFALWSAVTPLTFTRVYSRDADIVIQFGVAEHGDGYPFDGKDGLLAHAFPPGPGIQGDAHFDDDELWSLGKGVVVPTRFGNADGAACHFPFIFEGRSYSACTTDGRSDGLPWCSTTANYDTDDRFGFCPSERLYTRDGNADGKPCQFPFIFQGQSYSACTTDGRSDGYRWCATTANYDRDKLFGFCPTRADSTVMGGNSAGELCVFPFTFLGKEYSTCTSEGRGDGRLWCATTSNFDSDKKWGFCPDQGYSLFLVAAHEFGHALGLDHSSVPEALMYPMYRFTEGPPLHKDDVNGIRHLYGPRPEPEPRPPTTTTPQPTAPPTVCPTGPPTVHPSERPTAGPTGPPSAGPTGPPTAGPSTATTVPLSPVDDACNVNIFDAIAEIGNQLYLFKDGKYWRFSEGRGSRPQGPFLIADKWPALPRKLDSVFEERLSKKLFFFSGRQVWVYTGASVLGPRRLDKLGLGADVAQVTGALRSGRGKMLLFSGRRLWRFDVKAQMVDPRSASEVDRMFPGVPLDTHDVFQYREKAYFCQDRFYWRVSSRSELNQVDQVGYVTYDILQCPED
Sequence of 72 kDa type IV collagenase (P08253 whole entry): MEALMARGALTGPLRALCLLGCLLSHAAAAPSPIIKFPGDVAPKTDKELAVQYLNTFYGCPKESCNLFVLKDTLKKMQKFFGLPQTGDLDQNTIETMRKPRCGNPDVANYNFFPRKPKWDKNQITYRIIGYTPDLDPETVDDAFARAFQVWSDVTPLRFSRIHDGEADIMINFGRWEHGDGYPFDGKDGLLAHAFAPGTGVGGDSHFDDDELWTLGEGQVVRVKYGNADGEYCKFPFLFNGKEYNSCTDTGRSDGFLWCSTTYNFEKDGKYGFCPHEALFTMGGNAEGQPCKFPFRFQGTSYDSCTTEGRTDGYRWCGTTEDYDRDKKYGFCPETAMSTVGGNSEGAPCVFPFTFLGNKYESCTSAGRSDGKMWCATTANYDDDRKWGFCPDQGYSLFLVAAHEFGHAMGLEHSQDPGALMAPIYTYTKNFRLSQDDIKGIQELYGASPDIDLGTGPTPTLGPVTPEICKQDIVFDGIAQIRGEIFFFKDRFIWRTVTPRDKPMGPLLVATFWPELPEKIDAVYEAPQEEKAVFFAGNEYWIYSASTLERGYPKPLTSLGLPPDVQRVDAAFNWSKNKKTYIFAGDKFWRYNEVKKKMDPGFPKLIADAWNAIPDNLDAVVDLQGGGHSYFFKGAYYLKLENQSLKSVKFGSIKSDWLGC

| Compound | IC50 [1] | IC50 [2] | IC50 [3] | IC50 [4] | IC50 [5] |
| --- | --- | --- | --- | --- | --- |
| CCCCN([C@@H](C(=O)O)C(C)C)S(=O)(=O)c1ccc(-c2nc(-c3ccc(C)s3)no2)cc1 | 0.105 µM | 0.01 µM | 0.087 µM | 0.212 µM | 0.547 µM |
| CCCCCN([C@@H](C(=O)O)C(C)C)S(=O)(=O)c1ccc(-c2nc(-c3ccc(C)s3)no2)cc1 | 0.162 µM | 0.032 µM | 0.087 µM | 0.104 µM | 0.466 µM |
| CC(C)[C@@H](NS(=O)(=O)c1ccc(-c2nc(-c3ccc(Cn4cc(CCCF)nn4)s3)no2)cc1)C(=O)O | 0.013 µM | 0.016 µM | 0.102 µM | 0.012 µM | 0.022 µM |
| CCCCCCCCN([C@@H](C(=O)O)C(C)C)S(=O)(=O)c1ccc(-c2nc(-c3ccc(C)s3)no2)cc1 | 3.6 µM | 0.99 µM | 4 µM | > 10 µM |  |
| CCCCCCCCCCCCCCCCN([C@@H](C(=O)O)C(C)C)S(=O)(=O)c1ccc(-c2nc(-c3ccc(C)s3)no2)cc1 | > 10 µM | > 10 µM | > 10 µM | > 10 µM | > 10 µM |
| CCN([C@@H](C(=O)O)C(C)C)S(=O)(=O)c1ccc(-c2nc(-c3ccc(C)s3)no2)cc1 | 0.058 µM | 0.0007 µM | 0.033 µM | 0.252 µM | 0.149 µM |
| Cc1ccc(-c2noc(-c3ccc(S(=O)(=O)N(CCCCF)[C@@H](C(=O)O)C(C)C)cc3)n2)s1 | 0.041 µM | 0.003 µM | 0.025 µM | 0.096 µM | 0.101 µM |
| Cc1ccc(-c2noc(-c3ccc(S(=O)(=O)N(Cc4ccccc4)[C@@H](C(=O)O)C(C)C)cc3)n2)s1 | 0.113 µM | 0.005 µM | 0.095 µM | 0.987 µM | 0.58 µM |
| CCCCCCN([C@@H](C(=O)O)C(C)C)S(=O)(=O)c1ccc(-c2nc(-c3ccc(C)s3)no2)cc1 | 0.527 µM | 0.08 µM | 0.329 µM | 0.333 µM | > 10 µM |
| Cc1ccc(-c2noc(-c3ccc(S(=O)(=O)N(CCF)[C@@H](C(=O)O)C(C)C)cc3)n2)s1 | 0.036 µM | 0.00059 µM | 0.034 µM | 0.458 µM | 0.09 µM |
| CCCN([C@@H](C(=O)O)C(C)C)S(=O)(=O)c1ccc(-c2nc(-c3ccc(C)s3)no2)cc1 | 0.026 µM | 0.005 µM | 0.092 µM | 0.35 µM | 0.19 µM |
| Cc1ccc(-c2noc(-c3ccc(S(=O)(=O)N(CCCC(F)(F)F)[C@@H](C(=O)O)C(C)C)cc3)n2)s1 | 0.164 µM | 0.028 µM | 0.154 µM | 0.391 µM | 0.371 µM |
| CC(C)[C@@H](NS(=O)(=O)c1ccc(-c2nc(-c3ccc(Cn4cc(CCCCCF)nn4)s3)no2)cc1)C(=O)O | 0.029 µM | 0.022 µM | 1 µM | 0.036 µM | 0.089 µM |
| Cc1ccc(-c2noc(-c3ccc(S(=O)(=O)N(CCOCOCCCOCCN=[N+]=[N-])[C@@H](C(=O)O)C(C)C)cc3)n2)s1 | 0.182 µM | 0.008 µM | 0.036 µM | 0.093 µM | 0.083 µM |
| Cc1ccc(-c2noc(-c3ccc(S(=O)(=O)N[C@@H](C(=O)O)C(C)C)cc3)n2)s1 | 0.014 µM | 0.004 µM | 0.013 µM | 0.057 µM | 0.026 µM |
| Cc1ccc(-c2noc(-c3ccc(S(=O)(=O)N(CCCCCCCCCCCCN=[N+]=[N-])[C@@H](C(=O)O)C(C)C)cc3)n2)s1 | 4 µM | 0.057 µM | 0.933 µM | 2 µM | 0.923 µM |
| Cc1ccc(-c2noc(-c3ccc(S(=O)(=O)N(C)[C@@H](C(=O)O)C(C)C)cc3)n2)s1 | 0.037 µM | 0.005 µM | 0.036 µM | 0.37 µM | 0.013 µM |

Reference: ChEMBL document CHEMBL5325449, “Influence of N-arylsulfonamido d-valine N-substituents on the selectivity and potency of matrix metalloproteinase inhibitors” (Bioorg Med Chem, 2023)
